In PubChem BioAssay AID248 (DTP/NCI, 2004):
“And” between values parts separate entries of the source, which are not always exact repeats. Equal values may be shown once. Inconclusive results and toxic doses are left out.

Tested on: L1210 leukemia ip in BDF1 mice, survival T/C
Experiment: NCI In Vivo Anticancer Drug Screen. Data for tumor model L1210 Leukemia (intraperitoneal) in B6D2F1 (BDF1) mice
Conditions: higher = longer survival
Procedure, shortened: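 In this screen, tumor-bearing mice given compound are compared to those given vehicle, and their survival values are reported as a treated-to-control quotient.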

[1] = endpoint: mean survival time, dose: 100.0 mg/kg/injection, schedule: Q01DX009 (ip), vehicle: Klucel (hydroxypropylcellulose) (HPC)
[2] = endpoint: mean survival time, dose: 100.0 mg/kg/injection, schedule: Q04DX003 (ip), vehicle: Klucel (hydroxypropylcellulose) (HPC)
[3] = endpoint: mean survival time, dose: 200.0 mg/kg/injection, schedule: Q01DX009 (ip), vehicle: Klucel (hydroxypropylcellulose) (HPC)
[4] = endpoint: mean survival time, dose: 200.0 mg/kg/injection, schedule: Q04DX003 (ip), vehicle: Klucel (hydroxypropylcellulose) (HPC)
[5] = endpoint: mean survival time, dose: 400.0 mg/kg/injection, schedule: Q01DX009 (ip), vehicle: Klucel (hydroxypropylcellulose) (HPC)
[6] = endpoint: mean survival time, dose: 400.0 mg/kg/injection, schedule: Q04DX003 (ip), vehicle: Klucel (hydroxypropylcellulose) (HPC)
[7] = endpoint: mean survival time, dose: 100.0 mg/kg/injection, schedule: Q01DX009 (ip), vehicle: saline with Tween-80
[8] = endpoint: mean survival time, dose: 200.0 mg/kg/injection, schedule: Q01DX009 (ip), vehicle: saline with Tween-80
[9] = endpoint: mean survival time, dose: 100.0 mg/kg/injection, schedule: Q04DX003 (ip), vehicle: saline with Tween-80
[10] = endpoint: mean survival time, dose: 75.0 mg/kg/injection, schedule: Q01DX001 (ip), vehicle: saline
[11] = endpoint: mean survival time, dose: 150.0 mg/kg/injection, schedule: Q01DX001 (ip), vehicle: saline
[12] = endpoint: mean survival time, dose: 100.0 mg/kg/injection, schedule: Q04DX002 (ip), vehicle: saline with Tween-80

`COc1cccc(/C(=C/c2ccc([N+](=O)[O-])cc2)C(=O)O)c1` was tested, and the T/C (endpoint: mean survival time, dose: 100.0 mg/kg/injection, schedule: Q01DX001 (ip), vehicle: Klucel (hydroxypropylcellulose) (HPC)) was 100 % of control, the T/C [1] was 97 % of control and 100 % of control and the T/C [2] was 100 % of control. For the same compound, the T/C (endpoint: mean survival time, dose: 200.0 mg/kg/injection, schedule: Q01DX001 (ip), vehicle: Klucel (hydroxypropylcellulose) (HPC)) was 109 % of control, the T/C [3] was 96 % of control and 87 % of control and the T/C [4] was 105 % of control. For the same compound, the T/C (endpoint: mean survival time, dose: 400.0 mg/kg/injection, schedule: Q01DX001 (ip), vehicle: Klucel (hydroxypropylcellulose) (HPC)) was 97 % of control, the T/C [5] was 100 % of control and 91 % of control and the T/C [6] was 105 % of control.

In the case of `CCCCCC[C@@H](O)C/C=C\CCCCCCCC(=O)OCCO`, the T/C (endpoint: median survival time, dose: 25.0 mg/kg/injection, schedule: Q01DX009 (ip), vehicle: saline) is reported as 101 % of control, the T/C (endpoint: median survival time, dose: 50.0 mg/kg/injection, schedule: Q01DX009 (ip), vehicle: saline) is reported as 100 % of control and the T/C (endpoint: median survival time, dose: 100.0 mg/kg/injection, schedule: Q01DX009 (ip), vehicle: saline) is reported as 120 % of control. The T/C (endpoint: median survival time, dose: 200.0 mg/kg/injection, schedule: Q01DX009 (ip), vehicle: saline) was 106 % of control, the T/C (endpoint: median survival time, dose: 400.0 mg/kg/injection, schedule: Q01DX009 (ip), vehicle: saline) was 106 % of control and the T/C (endpoint: median survival time, dose: 800.0 mg/kg/injection, schedule: Q01DX009 (ip), vehicle: saline) was 101 % of control.

In the case of `CC(=O)Nc1cc([N+](=O)[O-])cc(C)c1O`, the T/C [7] is reported as 97 % of control and the T/C [8] is reported as 89 % of control.

With `NC(=O)c1cnc(N)nc1C(N)=O` the T/C [7] was 94 % of control, the T/C [9] was 96 % of control and the T/C [8] was 100 % of control. For the same compound, the T/C (endpoint: mean survival time, dose: 200.0 mg/kg/injection, schedule: Q04DX003 (ip), vehicle: saline with Tween-80) was 100 % of control, the T/C (endpoint: mean survival time, dose: 400.0 mg/kg/injection, schedule: Q01DX009 (ip), vehicle: saline with Tween-80) was 96 % of control and the T/C (endpoint: mean survival time, dose: 400.0 mg/kg/injection, schedule: Q04DX003 (ip), vehicle: saline with Tween-80) was 94 % of control.

With `O=c1[nH]c(=S)[nH]cc1CN(CCO)CCO` the T/C (endpoint: mean survival time, dose: 50.0 mg/kg/injection, schedule: Q01DX001 (ip), vehicle: saline) was 97 % of control, the T/C (endpoint: mean survival time, dose: 100.0 mg/kg/injection, schedule: Q01DX001 (ip), vehicle: saline) was 90 % of control and the T/C (endpoint: mean survival time, dose: 200.0 mg/kg/injection, schedule: Q01DX001 (ip), vehicle: saline) was 95 % of control.

With `O=S(=O)(Cc1ccccc1)SSS(=O)(=O)Cc1ccccc1` the T/C [10] was 98 % of control, the T/C [11] was 106 % of control and the T/C (endpoint: mean survival time, dose: 300.0 mg/kg/injection, schedule: Q01DX001 (ip), vehicle: saline) was 95 % of control.

In the case of `CC(=O)Oc1ccc(Nc2c3ccccc3nc3ccccc23)cc1`, the T/C (endpoint: mean survival time, dose: 25.0 mg/kg/injection, schedule: Q04DX002 (ip), vehicle: saline with Tween-80) is reported as 106 % of control, the T/C (endpoint: mean survival time, dose: 44.0 mg/kg/injection, schedule: Q04DX003 (ip), vehicle: saline with Tween-80) is reported as 116 % of control and the T/C (endpoint: mean survival time, dose: 66.0 mg/kg/injection, schedule: Q04DX003 (ip), vehicle: saline with Tween-80) is reported as 119 % of control. For the same compound, the T/C [12] was 181 % of control, the T/C [9] was 123 % of control and the T/C (endpoint: mean survival time, dose: 150.0 mg/kg/injection, schedule: Q04DX003 (ip), vehicle: saline with Tween-80) was 116 % of control.

For `O=C(NO)c1cc(Br)cc(Br)c1O`, the T/C (endpoint: mean survival time, dose: 25.0 mg/kg/injection, schedule: Q01DX009 (ip), vehicle: saline with Tween-80) was 98 % of control, the T/C (endpoint: mean survival time, dose: 50.0 mg/kg/injection, schedule: Q01DX009 (ip), vehicle: saline with Tween-80) was 102 % of control and the T/C [7] was 100 % of control. The T/C [12] was 93 % of control, the T/C (endpoint: mean survival time, dose: 200.0 mg/kg/injection, schedule: Q04DX002 (ip), vehicle: saline with Tween-80) was 97 % of control and the T/C (endpoint: mean survival time, dose: 400.0 mg/kg/injection, schedule: Q04DX002 (ip), vehicle: saline with Tween-80) was 200 % of control.

With `O=c1c(-c2ccccc2)c(-c2ccccc2)c1=O` the T/C [10] was 91 % of control and the T/C [11] was 96 % of control.

With `CNc1cc(C(C)C)ccc1C` the T/C (endpoint: mean survival time, dose: 12.5 mg/kg/injection, schedule: Q01DX009 (ip), vehicle: Klucel (hydroxypropylcellulose) (HPC)) was 102 % of control, the T/C (endpoint: mean survival time, dose: 25.0 mg/kg/injection, schedule: Q01DX009 (ip), vehicle: Klucel (hydroxypropylcellulose) (HPC)) was 96 % of control and the T/C (endpoint: mean survival time, dose: 50.0 mg/kg/injection, schedule: Q01DX009 (ip), vehicle: Klucel (hydroxypropylcellulose) (HPC)) was 113 % of control. For the same compound, the T/C (endpoint: mean survival time, dose: 100.0 mg/kg/injection, schedule: Q01DX009 (sc), vehicle: olive oil, sesame oil, peanut oil) was 114 % of control, the T/C (endpoint: mean survival time, dose: 100.0 mg/kg/injection, schedule: Q04DX003 (sc), vehicle: olive oil, sesame oil, peanut oil) was 108 % of control and the T/C (endpoint: mean survival time, dose: 200.0 mg/kg/injection, schedule: Q01DX009 (sc), vehicle: olive oil, sesame oil, peanut oil) was 105 % of control. The T/C (endpoint: mean survival time, dose: 200.0 mg/kg/injection, schedule: Q04DX003 (sc), vehicle: olive oil, sesame oil, peanut oil) was 105 % of control, the T/C (endpoint: mean survival time, dose: 400.0 mg/kg/injection, schedule: Q01DX009 (sc), vehicle: olive oil, sesame oil, peanut oil) was 110 % of control and the T/C (endpoint: mean survival time, dose: 400.0 mg/kg/injection, schedule: Q04DX003 (sc), vehicle: olive oil, sesame oil, peanut oil) was 103 % of control.

For `CN(CC(=O)O)C(=N)N`, the T/C (endpoint: mean survival time, dose: 100.0 mg/kg/injection, schedule: Q01DX001 (ip), vehicle: carboxymethylcellulose (CMC)) was 92 % of control, the T/C (endpoint: mean survival time, dose: 200.0 mg/kg/injection, schedule: Q01DX001 (ip), vehicle: carboxymethylcellulose (CMC)) was 94 % of control and the T/C (endpoint: mean survival time, dose: 250.0 mg/kg/injection, schedule: Q01DX Z (ip), vehicle: saline) was 94 % of control. The T/C (endpoint: mean survival time, dose: 400.0 mg/kg/injection, schedule: Q01DX001 (ip), vehicle: carboxymethylcellulose (CMC)) was 97 % of control, the T/C (endpoint: mean survival time, dose: 500.0 mg/kg/injection, schedule: Q01DX Z (ip), vehicle: saline) was 104 % of control and the T/C (endpoint: mean survival time, dose: 1000.0 mg/kg/injection, schedule: Q01DX Z (ip), vehicle: saline) was 107 % of control. The T/C (endpoint: mean survival time, dose: 1500.0 mg/kg/injection, schedule: Q#A X Z (ip), vehicle: water) was 117 % of control and the T/C (endpoint: mean survival time, dose: 2500.0 mg/kg/injection, schedule: Q#A X Z (ip), vehicle: water) was 95 % of control.

`CC(=O)Nc1ccccc1Sc1ccc(Br)cc1[N+](=O)[O-]` was tested, and the T/C (endpoint: mean survival time, dose: 75.0 mg/kg/injection, schedule: Q04DX003 (ip), vehicle: saline) was 91 % of control, the T/C (endpoint: mean survival time, dose: 150.0 mg/kg/injection, schedule: Q04DX003 (ip), vehicle: saline) was 90 % of control and the T/C (endpoint: mean survival time, dose: 300.0 mg/kg/injection, schedule: Q04DX003 (ip), vehicle: saline) was 87 % of control.

`NC(=S)N/N=C/c1c(Cl)[nH]c2ccccc12` was tested, and the T/C (endpoint: mean survival time, dose: 50.0 mg/kg/injection, schedule: Q04DX002 (ip), vehicle: saline) was 98 % of control, the T/C (endpoint: mean survival time, dose: 100.0 mg/kg/injection, schedule: Q04DX002 (ip), vehicle: saline) was 102 % of control and the T/C (endpoint: mean survival time, dose: 200.0 mg/kg/injection, schedule: Q04DX002 (ip), vehicle: saline) was 98 % of control.

`Nc1nc(=S)c2nc(CNc3ccc(C(=O)NC(CCC(=O)O)C(=O)O)cc3)nnc2[nH]1` (stereo not drawn) was tested, and the T/C (endpoint: mean survival time, dose: 100.0 mg/kg/injection, schedule: Q01DX001 (ip), vehicle: saline with Tween-80) was 103 % of control and the T/C (endpoint: mean survival time, dose: 200.0 mg/kg/injection, schedule: Q01DX001 (ip), vehicle: saline with Tween-80) was 105 % of control.

`O=C(O)c1ccccc1C(=O)c1cccc2ccccc12` was tested, and the T/C (endpoint: mean survival time, dose: 100.0 mg/kg/injection, schedule: Q04DX002 (ip), vehicle: gum acacia) was 102 % of control, the T/C (endpoint: mean survival time, dose: 200.0 mg/kg/injection, schedule: Q04DX002 (ip), vehicle: gum acacia) was 104 % of control and the T/C (endpoint: mean survival time, dose: 400.0 mg/kg/injection, schedule: Q04DX002 (ip), vehicle: gum acacia) was 95 % of control.

`O=C(COc1ccc(Cl)cc1)Nc1ccccc1F` was tested, and the T/C [1] was 88 % of control, the T/C [2] was 95 % of control and the T/C [3] was 89 % of control. For the same compound, the T/C [4] was 88 % of control, the T/C [5] was 91 % of control and the T/C [6] was 90 % of control.

In the case of `O=S(=O)(/N=C1/c2ccccc2/C(=N/S(=O)(=O)c2ccccc2)C2CC=CCC12)c1ccccc1` (stereo not drawn), the T/C (endpoint: mean survival time, dose: 25.0 mg/kg/injection, schedule: Q01DX001 (ip), vehicle: saline sonified) is reported as 94 % of control, the T/C (endpoint: mean survival time, dose: 50.0 mg/kg/injection, schedule: Q01DX001 (ip), vehicle: saline sonified) is reported as 95 % of control and the T/C (endpoint: mean survival time, dose: 100.0 mg/kg/injection, schedule: Q01DX001 (ip), vehicle: saline sonified) is reported as 92 % of control.

`N/N=C/c1ccccc1[N+](=O)[O-]` was tested, and the T/C (endpoint: mean survival time, dose: 100.0 mg/kg/injection, schedule: Q01DX001 (ip), vehicle: other) was 97 % of control, the T/C (endpoint: mean survival time, dose: 200.0 mg/kg/injection, schedule: Q01DX001 (ip), vehicle: other) was 95 % of control and the T/C (endpoint: mean survival time, dose: 400.0 mg/kg/injection, schedule: Q01DX001 (ip), vehicle: other) was 111 % of control.
